In patent publication EP2821071A1, “Compounds for breast cancer treatment” (Institut d'Investigació Biomèdica de Bellvitge (IDIBELL), priority 2013, dated 2015):

Experiments:
MCF7-LTED cells = experiment: MTT cell viability assay; format: cell-based
Experimental: (§1) MCF7-LTED cells were established in phenol red-free Roswell Park Memorial Institute medium containing 10% dextran-coated charcoal-stripped fetal bovine serum. Cellular viability was evaluated using a standard methylthiazol tetrazolium (MTT; Sigma-Aldrich) assay. The results of these assays are expressed relative to vehicle treated controls and to the original time point.
MCF7 and MCF7-LTED cells were plated in 384-well microtiter plates and five compound dilutions (1 nM to 10 µM final concentration) from the LOPAC library (1,258 compounds, Sigma-Aldrich) were added to the cultures. Cell viability was assessed after 72 hours using MTT-based assays and the EnVision spectrofluorometer (Perkin-Elmer). The screen was performed in triplicate. The quality of the screen (Z'-factor > 0.5 for all screens) and the data was analyzed using the cell HTS2 module in the ScreenSaver database. The data was normalized between 0 and 1 using positive (1 µM phenylarsene oxide, Sigma-Aldrich) and negative (0.1% dimethyl sulfoxide, Merck) controls for cell viability. For hit selection, the difference between the normalize percentage inhibition (NPI) in MCF7 and MCF7-LTED cells was calculated by subtraction [ΔNPI = NPI(MCF7-LTED) - NPI(MCF7)] and the differentials were clustered with the MeV software package using the Cluster Affinity Search method with the Euclidean distance metric (threshold of 0.7).
Acquired resistance to aromatase inhibitors in postmenopausal women can be modeled in long-term estrogen-deprived (LTED) MCF7 cells. Using this model, a cell-based chemical compound screen was carried out to identify potential therapeutic strategies that could prevent and/or overcome resistance. More than 1,200 compounds were assessed for their differential effect on the viability (as defined by MTT-based assays) of MCF7-LTED cells relative to the parental MCF7 cells.
Having identified the comparative inhibitory effect of YC-1 on the viability of MCF7-LTED cells, we evaluated the effect of this compound on a collection of breast cancer cell lines. […]

MCF7 cells = experiment: MTT cell viability assay; format: cell-based; conditions: Homo sapiens, MCF7 cell line
Experimental: as §1
[…] Cell viability was assessed after 72 hours using MTT-based assays and the EnVision spectrofluorometer (Perkin-Elmer). The screen was performed in triplicate. The quality of the screen (Z'-factor > 0.5 for all screens) and the data was analyzed using the cell HTS2 module in the ScreenSaver database. […] For hit selection, the difference between the normalize percentage inhibition (NPI) in MCF7 and MCF7-LTED cells was calculated by subtraction [ΔNPI = NPI(MCF7-LTED) - NPI(MCF7)] and the differentials were clustered with the MeV software package using the Cluster Affinity Search method with the Euclidean distance metric (threshold of 0.7).
Acquired resistance to aromatase inhibitors in postmenopausal women can be modeled in long-term estrogen-deprived (LTED) MCF7 cells. […] More than 1,200 compounds were assessed for their differential effect on the viability (as defined by MTT-based assays) of MCF7-LTED cells relative to the parental MCF7 cells. […]

AU565 = experiment: MTT cell viability assay; format: cell-based; conditions: Homo sapiens, AU565 cell line
Experimental: as §1
(§2) Having identified the comparative inhibitory effect of YC-1 on the viability of MCF7-LTED cells, we evaluated the effect of this compound on a collection of breast cancer cell lines. […] For the remaining sensitive cell lines (as defined by an IC50 < 10 µM threshold), no associations with ERα and/or progesterone receptor (PR) and/or human epidermal growth factor receptor 2 (HER2) were observed (Table 1). Table 1. YC-1 IC50 (µM) values in breast cancer cell lines

BT474 = experiment: MTT cell viability assay; format: cell-based; conditions: Homo sapiens, BT-474, BT474 cell line
Experimental: as §1, §2

HCC1937 = experiment: MTT cell viability assay; format: cell-based; conditions: Homo sapiens, HCC1937 cell line
Experimental: as §1, §2

MCF10A = experiment: MTT cell viability assay; format: cell-based; conditions: Homo sapiens, MCF-10A, MCF10A cell line
Experimental: as §1, §2

MCF7-HER2 = experiment: MTT cell viability assay; format: cell-based; conditions: MCF7-HER2 cell line
Experimental: as §1, §2

MDA-MB-231 = experiment: MTT cell viability assay; format: cell-based; conditions: Homo sapiens, MDA-MB-231 cell line
Experimental: as §1, §2

MDA-MB-453 = experiment: MTT cell viability assay; format: cell-based; conditions: Homo sapiens, MDA-MB-453 cell line
Experimental: as §1, §2

MDA-MB-468 = experiment: MTT cell viability assay; format: cell-based; conditions: Homo sapiens, MDA-MB-468 cell line
Experimental: as §1, §2

SKBR3 = experiment: MTT cell viability assay; format: cell-based; conditions: Homo sapiens, SK-BR-3, SKBR3 cell line
Experimental: as §1, §2

T47D = experiment: MTT cell viability assay; format: cell-based; conditions: Homo sapiens, T47D cell line
Experimental: as §1, §2

ZR751 = experiment: MTT cell viability assay; format: cell-based; conditions: Homo sapiens, ZR-75-1, ZR751 cell line
Experimental: as §1, §2

ERα = experiment: Subcellular localization of ERα after YC-1 treatment; format: cell-based; conditions: MCF7-LTED and MCF7 cells; no substantial differences between the two
Excerpt: (§3) To determine the YC-1 mechanism of action that may be selective in models of acquired resistance, the subcellular localization of ERα was first examined. Although ERα levels and localization were altered by YC-1 treatment, no substantial differences were observed between MCF7-LTED and MCF7 cells. Subsequently, whole-genome expression data was obtained and analyzed for the basal and YC-1-exposed conditions in both cell lines. Consistent with the results described above, expression of the ribosome pathway clearly distinguished MCF7-LTED and MCF7 cells in basal conditions. […] In contrast, exposure of MCF7-LTED cells to YC-1 led to alteration of the cell cycle pathway and a decrease in a central positive regulator of the cell cycle, E2F1.

[1] = tested on: phospho-serine 235/236 ribosomal S6 protein; experiment: Phospho-S6 after YC-1 exposure of MCF7 cells; format: cell-based; conditions: MCF7 cells exposed to YC-1
Excerpt: as §3

E2F1 = E2F1 after YC-1 exposure of MCF7-LTED cells; format: cell-based; conditions: MCF7-LTED cells exposed to YC-1
Excerpt: as §3

platelet aggregation = conditions: cited from earlier work
[2] = tested on: phenylephrine-induced contractions of rabbit aorta; conditions: cited from earlier work

With `COc1cc2ncnc(Nc3ccc(F)c(Cl)c3)c2cc1OCCCN1CCOCC1` [Gefitinib, reference compound] the “differences in the growth rate of the two cellular models” value (MCF7-LTED cells; MCF7-LTED versus MCF7 cells, Fig. 1D) was “No differences”.
For `OCc1ccc(-c2nn(Cc3ccccc3)c3ccccc23)o1` [YC-1, 3-(5'-hydroxymethyl-2'-furyl)-1-benzylindazole], the IC50 (MCF7 cells) was 131 µM, the IC50 (MCF7-LTED cells; MCF7-LTED cell line (long-term estrogen-deprived), cell viability) was 4.9 µM and the IC50 (AU565) was 1.3 µM. For the same compound, the IC50 (BT474) was 319 µM, the IC50 (HCC1937) was 253 µM and the IC50 (MCF10A) was 99 µM. It also gave an IC50 (MCF7-HER2) of 187 µM, an IC50 (MDA-MB-231) of 4480 µM and an IC50 (MDA-MB-453) of 250 µM. It also gave an IC50 (MDA-MB-468) of 49 µM, an IC50 (SKBR3) of 1.6 µM and an IC50 (T47D) of 8.2 µM. The IC50 (ZR751) was 0.3 µM, the “ERα levels and localization” value (ERα) was “altered” and the “phospho-serine 235/236 ribosomal S6 protein” value [1] was “decrease”. The E2F1 (E2F1) was “decrease”.
In the case of `Nc1nc(-c2nn(Cc3ccccc3F)c3ncccc23)ncc1C1CC1` [BAY 41-2272], the “differences in cell viability” value (MCF7-LTED cells; MCF7-LTED versus MCF7 cells, validation, Fig. 1C) is listed as “differences in cell viability, although of lesser magnitude”, the IC50 (platelet aggregation) is listed as 0.036 µM and the IC50 [2] is listed as 0.3 µM.
